Test results reported in ChEMBL document CHEMBL5375956, “Discovery of Pyrazolo[1,5-a]pyrimidine Derivative as a Novel and Selective ALKBH5 Inhibitor for the Treatment of AML” (J Med Chem, 2023).

Legend:
[1] = target: Alpha-ketoglutarate-dependent dioxygenase FTO (Homo sapiens, UniProt Q9C0B1); assay: Inhibition of FTO (32 to 505 residues)(unknown origin) expressed in Escherichia coli BL21(DE3) by FP assay
RNA demethylase ALKBH5 [2] = target: T1, RNA demethylase ALKBH5 (Homo sapiens, UniProt Q6P6C2); assay: Inhibition of ALKBH5 (66 to 292 residues)(unknown origin) expressed in Escherichia coli BL21(DE3) using 5'-ATTGTCA(m6A)CAGCAGA-FAM-3' as substrate incubated for 30 mins by FP assay
Target sequence in this assay (Q6P6C2 whole entry, the tested form may be a part): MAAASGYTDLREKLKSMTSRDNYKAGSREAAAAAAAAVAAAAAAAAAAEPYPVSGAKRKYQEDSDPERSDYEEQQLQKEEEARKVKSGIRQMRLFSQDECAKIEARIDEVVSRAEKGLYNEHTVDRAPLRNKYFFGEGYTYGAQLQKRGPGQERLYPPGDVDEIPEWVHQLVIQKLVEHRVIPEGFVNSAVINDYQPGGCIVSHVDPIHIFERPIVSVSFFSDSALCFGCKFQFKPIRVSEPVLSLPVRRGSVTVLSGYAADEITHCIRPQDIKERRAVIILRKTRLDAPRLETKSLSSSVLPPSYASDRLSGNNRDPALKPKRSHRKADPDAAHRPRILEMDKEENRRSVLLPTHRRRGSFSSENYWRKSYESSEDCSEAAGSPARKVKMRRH

RNA demethylase ALKBH5 [3] = target: T1, RNA demethylase ALKBH5; assay: Inhibition of ALKBH5 (66 to 292 residues)(unknown origin) expressed in Escherichia coli BL21(DE3) using 5'-ATTGTCA(m6A)CAGCAGA-FAM-3' as substrate incubated for 30 mins in presence of 2 uM of 2-OG by FP based competitive binding assay
Target sequence in this assay (Q6P6C2 whole entry, the tested form may be a part): as above

RNA demethylase ALKBH5 [4] = target: T1, RNA demethylase ALKBH5; assay: Inhibition of ALKBH5 (66 to 292 residues)(unknown origin) expressed in Escherichia coli BL21(DE3) using 5'-ATTGTCA(m6A)CAGCAGA-FAM-3' as substrate incubated for 30 mins in presence of 0.2 uM of 2-OG by FP based competitive binding assay
Target sequence in this assay (Q6P6C2 whole entry, the tested form may be a part): as above

RNA demethylase ALKBH5 [5] = target: T1, RNA demethylase ALKBH5; assay: Inhibition of ALKBH5 (66 to 292 residues)(unknown origin) expressed in Escherichia coli BL21(DE3) using 5'-ATTGTCA(m6A)CAGCAGA-FAM-3' as substrate incubated for 30 mins in presence of 200 uM of 2-OG by FP based competitive binding assay
Target sequence in this assay (Q6P6C2 whole entry, the tested form may be a part): as above

RNA demethylase ALKBH5 [6] = target: T1, RNA demethylase ALKBH5; assay: Inhibition of ALKBH5 (66 to 292 residues)(unknown origin) expressed in Escherichia coli BL21(DE3) using 5'-ATTGTCA(m6A)CAGCAGA-FAM-3' as substrate incubated for 30 mins in presence of 20 uM of 2-OG by FP based competitive binding assay
Target sequence in this assay (Q6P6C2 whole entry, the tested form may be a part): as above

RNA demethylase ALKBH5 [7] = target: T1, RNA demethylase ALKBH5; assay: Binding affinity to ALKBH5 (66 to 292 residues)(unknown origin) expressed in Escherichia coli BL21(DE3) assessed as increase in melting temperature incubated for 30 mins by thermal shift assay
Target sequence in this assay (Q6P6C2 2-394 limits assumed): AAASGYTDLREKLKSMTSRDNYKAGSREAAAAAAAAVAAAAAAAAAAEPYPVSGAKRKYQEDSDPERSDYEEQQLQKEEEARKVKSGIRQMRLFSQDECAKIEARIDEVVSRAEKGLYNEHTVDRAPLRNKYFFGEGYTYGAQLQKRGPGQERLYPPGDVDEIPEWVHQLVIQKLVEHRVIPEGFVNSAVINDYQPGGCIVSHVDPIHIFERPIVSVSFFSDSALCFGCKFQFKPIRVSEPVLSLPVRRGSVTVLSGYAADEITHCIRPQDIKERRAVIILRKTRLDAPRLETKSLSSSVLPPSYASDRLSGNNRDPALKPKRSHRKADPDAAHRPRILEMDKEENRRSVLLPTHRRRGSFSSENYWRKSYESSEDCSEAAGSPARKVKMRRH

Sequence of Alpha-ketoglutarate-dependent dioxygenase FTO (Q9C0B1 whole entry, the tested form may be a part): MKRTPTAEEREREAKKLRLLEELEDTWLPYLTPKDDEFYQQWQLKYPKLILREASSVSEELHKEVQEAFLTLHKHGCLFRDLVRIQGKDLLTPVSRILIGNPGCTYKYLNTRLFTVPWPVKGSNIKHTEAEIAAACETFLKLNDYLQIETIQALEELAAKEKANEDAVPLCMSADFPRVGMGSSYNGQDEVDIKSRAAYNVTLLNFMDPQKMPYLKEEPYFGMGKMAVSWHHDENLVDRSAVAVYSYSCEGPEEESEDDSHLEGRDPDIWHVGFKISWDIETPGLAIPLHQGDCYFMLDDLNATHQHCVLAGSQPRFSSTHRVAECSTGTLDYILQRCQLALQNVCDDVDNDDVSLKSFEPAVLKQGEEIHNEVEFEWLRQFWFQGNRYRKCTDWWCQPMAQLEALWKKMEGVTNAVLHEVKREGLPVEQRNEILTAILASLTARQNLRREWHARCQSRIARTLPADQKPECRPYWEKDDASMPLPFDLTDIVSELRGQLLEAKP

| Compound | IC50 [1] [µM] | IC50 (RNA demethylase ALKBH5 [2]) [µM] | other results |
| --- | --- | --- | --- |
| O=C(c1cnc2cc(-c3ccc(O)cc3)nn2c1)c1cc([N+](=O)[O-])ccc1O | 16.6 | 46.4 | – |
| O=C(c1cnc2cc(-c3ccc(Cl)cc3)nn2c1)c1ccccc1O | > 200 | > 200 | – |
| O=C(c1cnc2cc(-c3ccccc3Cl)nn2c1)c1cc([N+](=O)[O-])ccc1O | > 200 | 102 | – |
| O=C(c1cnc2cc(-c3ccccc3)nn2c1)c1cc([N+](=O)[O-])ccc1O | – | 45.1 | – |
| O=C(OCc1ccc(C(F)(F)F)cc1)c1ccc(-c2cc3ncc(C(=O)c4cc([N+](=O)[O-])ccc4O)cn3n2)cc1 | > 200 | 4.64 | – |
| O=C(O)c1ccnc(C(=O)NS(=O)(=O)c2ccccc2)c1 | – | 67.7 | IC50 (RNA demethylase ALKBH5 [3]): 135 µM; IC50 (RNA demethylase ALKBH5 [4]): 87.6 µM; IC50 (RNA demethylase ALKBH5 [5]): 269 µM; IC50 (RNA demethylase ALKBH5 [6]): 211 µM |
| O=C(c1cnc2cc(-c3ccc(Cl)cc3)nn2c1)c1cccc([N+](=O)[O-])c1O | > 200 | 62.7 | – |
| O=C(O)c1ccc(-c2cc3ncc(C(=O)c4cc([N+](=O)[O-])ccc4O)cn3n2)cc1 | 5.98 | 56.5 | – |
| O=C(c1cnc2cc(-c3ccc(Cl)cc3)nn2c1)c1cc([N+](=O)[O-])ccc1O | > 200 | 15.6 | ΔTm (RNA demethylase ALKBH5 [7]): > 1 °C |
| Cc1ccc(-c2cc3ncc(C(=O)c4cc([N+](=O)[O-])ccc4O)cn3n2)cc1 | > 200 | > 200 | – |
| O=C(c1cnc2cc(-c3cccc(Cl)c3)nn2c1)c1cc([N+](=O)[O-])ccc1O | > 200 | 24.6 | – |
| O=C(c1cnc2cc(-c3ccc(Cl)cc3)nn2c1)c1c(O)ccc([N+](=O)[O-])c1O | 8.39 | 14.4 | – |
| O=C(c1cnc2cc(-c3ccc(C(F)(F)F)cc3)nn2c1)c1cc([N+](=O)[O-])ccc1O | > 200 | 23.3 | – |
| O=C(c1cnc2cc(-c3ccc(Cl)cc3)nn2c1)c1cc(C(F)(F)F)ccc1O | > 200 | > 200 | – |
| O=C(O)c1ccc(O)c(C(=O)c2cnc3cc(-c4ccc(Cl)cc4)nn3c2)c1 | > 200 | 141 | – |
| COC(=O)c1ccc(-c2cc3ncc(C(=O)c4cc([N+](=O)[O-])ccc4O)cn3n2)cc1 | > 200 | 9.12 | – |
| O=C(OCc1ccc(Cl)cc1)c1ccc(-c2cc3ncc(C(=O)c4cc([N+](=O)[O-])ccc4O)cn3n2)cc1 | > 200 | 10.7 | – |
| COc1ccc([N+](=O)[O-])cc1C(=O)c1cnc2cc(-c3ccc(Cl)cc3)nn2c1 | > 200 | > 200 | – |
| Cc1ccc(COC(=O)c2ccc(-c3cc4ncc(C(=O)c5cc([N+](=O)[O-])ccc5O)cn4n3)cc2)cc1 | > 200 | 41 | – |
| O=C(OCc1ccccc1)c1ccc(-c2cc3ncc(C(=O)c4cc([N+](=O)[O-])ccc4O)cn3n2)cc1 | > 200 | 7.88 | – |
